Experimental data from ChEMBL document CHEMBL1221220, “Transport and signaling via the amino acid binding site of the yeast Gap1 amino acid transceptor” (Nat Chem Biol, 2009).
Non-standard residues stand in square brackets, D forms with d. Residues, ends and D or L forms follow the SMILES beside them. *: point of attachment. Hyp = O=C(O)[C@@H]1C[C@@H](O)CN1; Abu = CC[C@H](N)C(=O)O; Boc = CC(C)(C)OC(=O)*; Aib = CC(C)(N)C(=O)O; Bz = O=C(c1ccccc1)*

Biological target: T1, General amino-acid permease GAP1 (Saccharomyces cerevisiae) (UniProt P19145)
T1 sequence (whole entry): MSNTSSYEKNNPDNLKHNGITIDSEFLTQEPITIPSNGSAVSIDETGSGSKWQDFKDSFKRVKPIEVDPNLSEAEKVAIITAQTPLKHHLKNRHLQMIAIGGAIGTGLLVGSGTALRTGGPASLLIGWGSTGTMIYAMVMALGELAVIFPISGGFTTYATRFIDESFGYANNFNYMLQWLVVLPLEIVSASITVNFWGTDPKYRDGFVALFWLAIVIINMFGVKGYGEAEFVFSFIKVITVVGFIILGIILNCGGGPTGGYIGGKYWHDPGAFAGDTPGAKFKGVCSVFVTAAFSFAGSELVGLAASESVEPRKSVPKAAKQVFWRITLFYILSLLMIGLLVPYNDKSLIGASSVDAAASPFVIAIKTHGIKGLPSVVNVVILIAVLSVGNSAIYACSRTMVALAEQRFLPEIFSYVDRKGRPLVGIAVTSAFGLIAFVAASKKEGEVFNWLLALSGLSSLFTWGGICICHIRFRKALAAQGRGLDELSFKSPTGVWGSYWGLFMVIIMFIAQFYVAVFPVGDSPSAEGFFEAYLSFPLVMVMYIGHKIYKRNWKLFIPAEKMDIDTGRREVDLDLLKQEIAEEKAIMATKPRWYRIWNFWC
Settings: sigma1278b, at 5 mM
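Note: amino acid uptake through Gap1 in nitrogen-starved wild-type yeast cells, measured after 60 s and expressed relative to L-citrulline.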
Description: Inhibition of nitrogen-starved wild type sigma1278b yeast Gap1-mediated amino acid uptake at 5 mM after 60 secs relative to L-citrulline

| inhibition | SMILES |
| --- | --- |
| < 15% | CC(C)C[C@H](NC(=O)[C@@H]1C[C@@H](O)CN1)C(=O)O (H-[Hyp]-Leu-OH) |
| < 15% | CC(C)C[C@@H](NC(=O)CN)C(=O)O |
| < 15% | CC(C)C[C@@H](N)C(=O)N[C@@H](CC(C)C)C(=O)O |
| < 15% | CC(C)C[C@H](N)C(=O)N1C[C@H](O)C[C@H]1C(=O)O (H-Leu-[Hyp]-OH) |
| > 30% | N[C@@H](Cc1ccco1)C(=O)O |
| < 15% | C[C@H](N)C(=O)OC(C)(C)C |
| < 15% | CCCC[C@H](NC(=O)OC(C)(C)C)C(=O)O |
| < 15% | N[C@@H](Cc1c[nH]cn1)C(=O)NCC(=O)O (H-His-Gly-OH) |
| < 15% | CC(C)C[C@H](NC(=O)[C@@H](NC(=O)[C@@H](N)[C@@H](C)O)C(C)C)C(=O)O (H-Thr-Val-Leu-OH) |
| < 15% | CC[C@H](C)[C@H](NC(=O)CNC(=O)CN)C(=O)O (H-Gly-Gly-Ile-OH) |
| 15% | CC[C@H](C)[C@H](NC(=O)[C@H](C)N)C(=O)O (H-Ala-Ile-OH) |
| < 15% | CC(=O)N[C@@H](CC[S+](C)[O-])C(=O)O (stereo not given in full) |
| < 15% | CC(C)C[C@@H](N)C(=O)NCC(=O)O (H-[dL]-Gly-OH) |
| < 15% | CC(=O)N[C@@H](Cc1c[nH]c2ccccc12)C(=O)O |
| < 15% | N=C(N)NCCC[C@H](NC(=O)[C@@H](N)Cc1ccccc1)C(=O)O (H-Phe-Arg-OH) |
| < 15% | NCC(=O)N[C@@H](CO)C(=O)NCCS(=O)(=O)O |
| 15% | CCCC(NC(=O)CN)C(=O)O (racemic) |
| < 15% | CSCC[C@H](N)C(=O)N[C@@H](CCC(=O)O)C(=O)O (H-Met-Glu-OH) |
| < 15% | N[C@@H]1CONC1=O |
| < 15% | NC(=O)CC[C@H](NC(=O)[C@@H]1CCCN1)C(=O)O (H-Pro-Gln-OH) |
| < 15% | C[C@@H](O)[C@@H](NC(=O)CN)C(=O)O |
| < 15% | CC(C)(C)OC(=O)N[C@@H](CCCNC(=N)N)C(=O)O |
| < 15% | CSCC[C@H](N)C(=O)N[C@@H](CC(C)C)C(=O)O (H-Met-Leu-OH) |
| < 15% | CC(C)(C)OC(=O)N[C@@H](CCC(=O)O)C(=O)O |
| < 15% | NC(=O)[C@H](Cc1ccccc1)NC(=O)[C@@H](N)CC(=O)O (H-Asp-Phe-NH2) |

| inhibition | SMILES |
| --- | --- |
| < 15% | CC(=O)N[C@@H](COC(C)(C)C)C(=O)O |
| < 15% | C[C@@H](CC(=O)O)NC(=O)OC(C)(C)C |
| < 15% | CC(C)C[C@H](N)C(=O)NCC(=O)N1CCC[C@H]1C(=O)O (H-Leu-Gly-Pro-OH) |
| < 15% | CC(C)C[C@H](NC(=O)CNC(=O)[C@@H](N)CC(C)C)C(=O)O (H-Leu-Gly-Leu-OH) |
| < 15% | COC(=O)[C@@H](N)C(C)C |
| < 15% | NCCCC[C@H](N)C(=O)N[C@@H](Cc1c[nH]c2ccccc12)C(=O)O (H-Lys-Trp-OH) |
| < 15% | NCCCC[C@H](NC(=O)[C@@H](N)CCCCN)C(=O)O |
| < 15% | CC(C)[C@H](N)C(=O)N[C@@H](CO)C(=O)O (H-Val-Ser-OH) |
| < 15% | CC(C)C(NC(=O)CN)C(=O)O (racemic) |
| < 15% | CSCC[C@H](NC(=O)[C@@H](N)CCSC)C(=O)N[C@@H](C)C(=O)O (H-Met-Met-Ala-OH) |
| < 15% | CC(C)C[C@H](N)C(=O)NCC(=O)NCC(=O)O (H-Leu-Gly-Gly-OH) |
| < 15% | CC(C)(C)OC(=O)[C@@H](N)Cc1ccccc1 |
| < 15% | CC(C)C[C@H](N)C(=O)N[C@@H](CC(N)=O)C(=O)O (H-Leu-Asn-OH) |
| < 15% | COC(=O)CC[C@H](N)C(=O)OC |
| < 15% | NCC(=O)NCC(=O)N[C@@H](Cc1ccc(O)cc1)C(=O)O (H-Gly-Gly-Tyr-OH) |
| < 15% | COC(=O)CC[C@H](NC(=O)OC(C)(C)C)C(=O)O |
| < 15% | N[C@@H](Cc1c[nH]c2ccccc12)C(=O)N[C@@H](CCC(=O)O)C(=O)O (H-Trp-Glu-OH) |
| < 15% | C[C@@H](O)[C@H](NC(=O)OC(C)(C)C)C(=O)O |
| 15% | CSCC[C@H](NC(=O)[C@@H](N)Cc1cnc[nH]1)C(=O)O (H-His-Met-OH) |
| < 15% | N[C@@H](Cc1cnc[nH]1)C(=O)NCC(=O)N[C@@H](Cc1cnc[nH]1)C(=O)O (H-His-Gly-His-OH) |
| < 15% | CC(C)[C@H](N)C(N)=O |
| < 15% | CC[C@H](C)[C@H](NC(=O)CN)C(=O)NCC(=O)O (H-Gly-Ile-Gly-OH) |
| < 15% | COC(=O)[C@@H](N)Cc1c[nH]c2ccccc12 |
| > 30% | COC(=O)[C@H](Cc1ccccc1)NC(=O)C[C@H](N)C(=O)O |
| < 15% | CCC[C@@H](NC(=O)[C@@H](N)CCC(=O)O)C(=O)O |

| inhibition | SMILES |
| --- | --- |
| < 15% | NCC(=O)NCC(=O)N1CCC[C@H]1C(=O)O (H-Gly-Gly-Pro-OH) |
| < 15% | CC(C)(C)OC(=O)N1CCC[C@H]1C(=O)O |
| < 15% | N[C@@H](CO)C(=O)N[C@@H](Cc1ccc(O)cc1)C(=O)O (H-Ser-Tyr-OH) |
| < 15% | C[C@H](NC(=O)[C@@H](N)[C@@H](C)O)C(=O)O (H-Thr-Ala-OH) |
| < 15% | C[C@H](NC(=O)[C@H](Cc1cnc[nH]1)NC(=O)CN)C(=O)O (H-Gly-His-Ala-OH) |
| 15% | CC(C)C[C@H](NC(=O)CN)C(=O)O (racemic) |
| < 15% | CSCC[C@H](NC(=O)CN)C(=O)NCC(=O)O (H-Gly-Met-Gly-OH) |
| < 15% | NCC(=O)N[C@@H](CC(N)=O)C(=O)O (H-Gly-Asn-OH) |
| < 15% | CC(C)(C)OC(=O)[C@@H](N)CSSC[C@H](N)C(=O)OC(C)(C)C |
| < 15% | CSCC[C@H](NC(=O)[C@H](CC(C)C)NC(=O)CN)C(=O)O (H-Gly-Leu-Met-OH) |
| < 15% | CSCC[C@@H](N)C(=O)NCC(=O)O (H-[dM]-Gly-OH) |
| < 15% | NCC(=O)NCC(=O)N[C@@H](Cc1ccccc1)C(=O)O (H-Gly-Gly-Phe-OH) |
| < 15% | NC(=O)[C@@H](N)Cc1c[nH]c2ccccc12 |
| < 15% | CCC[C@H](N)C(=O)OC |
| < 15% | NCCC(N)=O |
| < 15% | O=C(O)[C@@H]1C=CCN1 |
| < 15% | CC(C)C[C@H](NC(=O)[C@@H](N)C(C)C)C(=O)O (H-Val-Leu-OH) |
| < 15% | NCC(=O)N1CCC[C@H]1C(=O)O (H-Gly-Pro-OH) |
| 15% | CN[C@@H](CC(C)C)C(=O)N[C@@H](CC(C)C)C(=O)O |
| < 15% | CC[C@H](N)C(=O)N[C@@H](CC(C)C)C(=O)O (H-[Abu]-Leu-OH) |
| < 15% | N[C@@H](Cc1cnc[nH]1)C(=O)N[C@@H](CCC(=O)O)C(=O)O (H-His-Glu-OH) |
| < 15% | CCOC(=O)[C@@H](N)Cc1ccccc1 |
| < 15% | CC(N)(Cc1ccccc1)C(=O)O (stereo not given) |
| > 30% | NCC(=O)N[C@@H](Cc1ccccc1)C(=O)O |
| < 15% | N[C@@H](CCC(=O)O)C(=O)N[C@@H](Cc1c[nH]c2ccccc12)C(=O)N[C@@H](CCC(=O)O)C(=O)O (H-Glu-Trp-Glu-OH) |

| inhibition | SMILES |
| --- | --- |
| < 15% | CSCC[C@H](N)C(=O)N[C@@H](CC(=O)O)C(=O)O (H-Met-Asp-OH) |
| < 15% | N[C@@H](CO)C(=O)NCC(=O)NCC(=O)O (H-Ser-Gly-Gly-OH) |
| < 15% | N[C@@H](Cc1ccc(O)cc1)C(=O)NCC(=O)O |
| < 15% | COC(=O)[C@@H](N)CCSC |
| < 15% | NCC(=O)NCCC(=O)O |
| < 15% | CC(=O)N[C@H](C(=O)O)[C@@H](C)OC(C)(C)C |
| < 15% | CC[C@H](C)[C@H](N)C(=O)OC |
| < 15% | COC(=O)[C@@H](N)Cc1ccc(O)cc1 |
| < 15% | CC(C)C[C@H](NC(=O)[C@H](CC(C)C)NC(=O)[C@@H](N)C(C)C)C(=O)O (H-Val-Leu-Leu-OH) |
| < 15% | CC(C)C[C@H](NC(=O)CN)C(N)=O |
| < 15% | COC(=O)[C@H](C)N |
| > 30% | CSCC[C@H](NC(=O)[C@H](C)N)C(=O)O (H-Ala-Met-OH) |
| < 15% | C[C@H](N)C(=O)N[C@@H](CCC(=O)O)C(N)=O (H-Ala-Glu-NH2) |
| < 15% | CC(C)C[C@H](NC(=O)[C@@H](N)[C@@H](C)O)C(=O)O (H-Thr-Leu-OH) |
| < 15% | O=C(O)CNC(=O)CNC(=O)c1ccccc1 (Bz-Gly-Gly-OH) |
| > 30% | CC(C)C[C@H](N)C(=O)N[C@@H](Cc1cnc[nH]1)C(=O)O (H-Leu-His-OH) |
| < 15% | N[C@@H](Cc1cnc[nH]1)C(=O)N[C@@H](Cc1ccccc1)C(=O)O (H-His-Phe-OH) |
| < 15% | CC(C)C[C@@H](N)CO |
| < 15% | NCC(N)=O |
| < 15% | C[C@H](NC(=O)OC(C)(C)C)C(=O)NC(C)(C)C(=O)O (Boc-Ala-[Aib]-OH) |
| < 15% | N[C@@H](Cc1cnc[nH]1)C(=O)NCCS(=O)(=O)O |
| > 30% | C[C@H](N)C(=O)N[C@@H](Cc1c[nH]c2ccccc12)C(=O)O (H-Ala-Trp-OH) |
| < 15% | CC(C)[C@H](NC(=O)[C@@H](N)Cc1ccccc1)C(=O)O (H-Phe-Val-OH) |

| SMILES | inhibition |
| --- | --- |
| CSCC[C@H](NC(=O)[C@@H](N)Cc1ccc(O)cc1)C(=O)NCC(=O)O (H-Tyr-Met-Gly-OH) | < 15% |
| N[C@H](CO)Cc1c[nH]c2ccccc12 | < 15% |
